In paper PMC2694220 (Biochemistry, 2009):

How the values were obtained:
WbpE = WbpE (Pseudomonas aeruginosa, UniProt Q9HZ76); test: capillary electrophoresis, coupled WbpB/WbpE reaction; type: biochemical; conditions: 25 mM L-glutamine in place of L-glutamate; otherwise same
[1] = test system: CC(=O)N[C@H]1[C@@H](OP(=O)(O)OP(=O)(O)OC[C@H]2O[C@@H](n3ccc(=O)[nH]c3=O)[C@H](O)[C@@H]2O)O[C@H](C(=O)O)[C@@H](O)[C@@H]1N; test: purified protein; conditions: 1.5 mM AcCoA, 50 mM HEPES pH 7.0, 30 °C, BSA carrier
WbpB = WbpB (Pseudomonas aeruginosa, UniProt G3XD23); test: capillary electrophoresis of conversion to UDP-GlcNAc; type: biochemical; conditions: 10 mM α-KG, 50 mM HEPES pH 8.0, 30 °C, no WbpE
WbpB, sequence (G3XD23 whole entry): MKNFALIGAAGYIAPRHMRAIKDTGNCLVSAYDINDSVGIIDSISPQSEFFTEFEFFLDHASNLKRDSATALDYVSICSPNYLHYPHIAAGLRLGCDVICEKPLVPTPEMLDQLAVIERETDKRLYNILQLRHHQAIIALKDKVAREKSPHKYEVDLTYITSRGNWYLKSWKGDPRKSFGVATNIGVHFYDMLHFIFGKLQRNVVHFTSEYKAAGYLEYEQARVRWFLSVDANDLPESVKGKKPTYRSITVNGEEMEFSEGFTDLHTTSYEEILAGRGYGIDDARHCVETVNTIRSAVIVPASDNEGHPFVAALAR

WbpE, sequence (Q9HZ76 whole entry): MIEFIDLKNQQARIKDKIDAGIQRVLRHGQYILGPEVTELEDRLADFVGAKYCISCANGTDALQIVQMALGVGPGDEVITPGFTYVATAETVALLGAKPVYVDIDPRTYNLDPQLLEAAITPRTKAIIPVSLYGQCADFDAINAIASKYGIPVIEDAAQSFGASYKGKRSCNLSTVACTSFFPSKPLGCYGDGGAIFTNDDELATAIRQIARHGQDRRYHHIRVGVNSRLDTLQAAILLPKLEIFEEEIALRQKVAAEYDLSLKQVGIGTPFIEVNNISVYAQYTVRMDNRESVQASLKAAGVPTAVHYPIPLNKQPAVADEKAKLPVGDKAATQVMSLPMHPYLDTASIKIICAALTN

## NC(=O)CC[C@H](N)C(=O)O [L-glutamine]
WbpE
  % conversion at 25 mM: 10%

## WbpD (Pseudomonas aeruginosa PAO1)
[1]
  Km: 107 ± 15 µM
  kcat: (2.9 ± 0.12) × 10^3 min^−1

## CC(=O)N[C@H]1[C@@H](OP(=O)(O)OP(=O)(O)OC[C@H]2O[C@@H](n3ccc(=O)[nH]c3=O)[C@H](O)[C@@H]2O)O[C@H](C(=O)O)[C@@H](O)[C@@H]1O [UDP-GlcNAcA]
WbpB
  capillary electrophoresis of conversion to UDP-GlcNAc(3keto)A: complete conversion of the UDP-GlcNAcA starting material to the UDP-GlcNAc(3keto)A product was observed by CE
